For this experiment, the target named is T1, human vasopressin V1a receptor subtype (Homo sapiens, UniProt P37288).
T1 construct: host or cells: CHO cells (pZeoSV vector for the Thibonnier line)
The experiment can be described thus: Vasopressin binding in Chinese Hamster Ovary cell membranes expressing human vasopressin V1a subtype receptors. The following applies: 100 nM, CHO cell membranes, [3H]Manning ligand, values without parentheses. In outline: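 Displacement of [3H]Manning ligand (8 nM working solution) from human V1a receptors in CHO cell membranes, 25–50 μg protein per well. Incubation ran 60 min at room temperature in 50 mM Tris-HCl pH 7.4 with protease inhibitors, followed by filtration and scintillation counting. Results are given as IC50 or percent inhibition.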

In general, inhibition refers to the relative decrease from the control value, in per cent.

T1 sequence (P37288 whole entry): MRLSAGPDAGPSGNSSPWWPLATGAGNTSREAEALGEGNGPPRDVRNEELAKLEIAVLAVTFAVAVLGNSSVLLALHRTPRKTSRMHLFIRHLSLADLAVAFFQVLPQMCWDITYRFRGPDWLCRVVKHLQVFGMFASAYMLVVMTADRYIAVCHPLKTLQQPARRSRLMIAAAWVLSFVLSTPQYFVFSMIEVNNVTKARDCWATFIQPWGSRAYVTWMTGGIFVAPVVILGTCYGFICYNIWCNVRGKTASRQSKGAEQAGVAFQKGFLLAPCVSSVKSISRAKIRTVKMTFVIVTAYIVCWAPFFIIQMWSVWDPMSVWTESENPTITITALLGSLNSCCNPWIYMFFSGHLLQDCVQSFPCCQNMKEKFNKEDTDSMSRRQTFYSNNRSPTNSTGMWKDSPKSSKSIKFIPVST

Consider `COc1cccc(-c2cc(OC)c(C(=O)N3Cc4ccc(C(=O)N5CCN(CCCN(C)C)CC5)n4Cc4ccccc43)cc2Cl)c1` [Example 252, {10-[(6-Chloro-3,3′-dimethoxy[1,1′-biphenyl]-4-yl)carbonyl]-10,11-dihydro-5H-pyrrolo[2,1-c][1,4]benzodiazepin-3-yl}{4-[3-(dimethylamino)propyl]-1-piperazinyl}methanone], for which the inhibition at 0.1 µM turned out to be 8%.

As for `Cc1ccccc1-c1ccc(C(=O)N2Cc3ccc(C(=O)N4CCCN(C)CC4)n3Cc3ccccc32)cc1C` [Example 63, {10-[(2,2′-Dimethyl[1,1′-biphenyl]-4-yl)carbonyl]-10,11-dihydro-5H-pyrrolo[2,1-c][1,4]benzodiazepin-3-yl}(4-methyl-1,4-diazepan-1-yl)methanone], the inhibition at 0.1 µM is 57%.

As for `COc1ccccc1-c1ccc(C(=O)N2Cc3ccc(C(=O)N4CCN(C)CC4)n3Cc3ccccc32)cc1OC` [Example 56, {10-[(2,2′-Dimethoxy[1,1′-biphenyl]-4-yl)carbonyl]-10,11-dihydro-5H-pyrrolo[2,1-c][1,4]benzodiazepin-3-yl}(4-methyl-1-piperazinyl)methanone], the inhibition at 0.1 µM was determined as 2%.

As to `COc1cccc(-c2ccc(C(=O)N3Cc4ccc(C(=O)N5CCN(CCCN(C)C)CC5)n4Cc4ccccc43)cc2C)c1` [Example 248, {4-[3-(Dimethylamino)propyl]-1-piperazinyl}{10-[(3′-methoxy-2-methyl[1,1′-biphenyl]-4-yl)carbonyl]-10,11-dihydro-5H-pyrrolo[2,1-c][1,4]benzodiazepin-3-yl}methanone], the inhibition at 0.1 µM turned out to be 17%.

For `COc1cc(C(=O)N2Cc3ccc(C(=O)N4CCN(C)CC4)n3Cc3ccccc32)ccc1-n1c(C)ccc1C` [Example 306, {10-[4-(2,5-Dimethyl-1H-pyrrol-1-yl)-3-methoxybenzoyl]-10,11-dihydro-5H-pyrrolo[2,1-c][1,4]benzodiazepin-3-yl}(4-methyl-1-piperazinyl)methanone], the inhibition at 0.1 µM came out at 0%.

Take `COc1cccc(-c2cc(OC)c(C(=O)N3Cc4ccc(C(=O)N[C@@H](Cc5c[nH]cn5)C(N)=O)n4Cc4ccccc43)cc2Cl)c1` [Example 287, N-[(1S)-2-Amino-1-(1H-imidazol-4-ylmethyl)-2-oxoethyl]-10-[(6-chloro-3,3′-dimethoxy[1,1′-biphenyl]-4-yl)carbonyl]-10,11-dihydro-5H-pyrrolo[2,1-c][1,4]benzodiazepine-3-carboxamide]: the inhibition at 0.1 µM amounted to 0%.

Regarding `COc1cc(-c2ccccc2C)c(Cl)cc1C(=O)N1Cc2ccc(C(=O)NCCCN(C)C)n2Cc2ccccc21` [Example 78, 10-[(6-Chloro-3-methoxy-2′-methyl[1,1′-biphenyl]-4-yl)carbonyl]-N-[3-(dimethylamino)propyl]-10,11-dihydro-5H-pyrrolo[2,1-c][1,4]benzodiazepine-3-carboxamide], the inhibition at 0.1 µM was -3%.

For `COc1ccccc1-c1ccc(C(=O)N2Cc3ccc(C(=O)N[C@@H](Cc4c[nH]cn4)C(N)=O)n3Cc3ccccc32)cc1OC` [Example 286, N-[(1S)-2-Amino-1-(1H-imidazol-4-ylmethyl)-2-oxoethyl]-10-[(2,2′-dimethoxy[1,1′-biphenyl]-4-yl)carbonyl]-10,11-dihydro-5H-pyrrolo[2,1-c][1,4]benzodiazepine-3-carboxamide], the inhibition at 0.1 µM was found to be 8%.

On to `COc1cccc(-c2ccc(C(=O)N3Cc4ccc(C(=O)N5CCN(C)CC5)n4Cc4ccccc43)cc2C)c1` [Example 51, {10-[(3′-Methoxy-2-methyl[1,1′-biphenyl]-4-yl)carbonyl]-10,11-dihydro-5H-pyrrolo[2,1-c][1,4]benzodiazepin-3-yl}(4-methyl-1-piperazinyl)methanone], for which the inhibition at 0.1 µM came to 14%.

Turning to `COc1cc(C(=O)N2Cc3ccc(C(=O)n4ccnc4)n3Cc3ccccc32)ccc1-c1ccccc1C` [Example 290, 1H-Imidazol-1-yl-{10-[(2-methoxy-2′-methyl[1,1′-biphenyl]-4-yl)carbonyl]-10,11-dihydro-5H-pyrrolo[2,1-c][1,4]benzodiazepin-3-yl}methanone], the inhibition at 0.1 µM is 47%.

`COc1cc(C(=O)N2Cc3ccc(C(=O)N4CCN(C)CC4)n3Cc3ccccc32)ccc1-c1cccc2ccccc12` [Example 55, {10-[3-Methoxy-4-(1-naphthyl)benzoyl]-10,11-dihydro-5H-pyrrolo[2,1-c][1,4]benzodiazepin-3-yl}(4-methyl-1-piperazinyl)methanone]: the inhibition at 0.1 µM is 4%.

Turning to `COc1cc(C(=O)N2Cc3ccc(C(=O)N4CCC(N5CCCC5)CC4)n3Cc3ccccc32)ccc1-n1c(C)ccc1C` [Example 313, {10-[4-(2,5-Dimethyl-1H-pyrrol-1-yl)-3-methoxybenzoyl]-10,11-dihydro-5H-pyrrolo[2,1-c][1,4]benzodiazepin-3-yl}[4-(1-pyrrolidinyl)-1-piperidinyl]methanone], the inhibition at 0.1 µM amounted to 2%.

In the case of `Cc1cc(C(=O)N2Cc3ccc(C(=O)N[C@H]4CN5CCC4CC5)n3Cc3ccccc32)ccc1-c1ccccc1C(F)(F)F` [Example 301, N-[(3R)-1-Azabicyclo[2.2.2]oct-3-yl]-10-{[2-methyl-2′-(trifluoromethyl)[1,1′-biphenyl]-4-yl]carbonyl}-10,11-dihydro-5H-pyrrolo[2,1-c][1,4]benzodiazepine-3-carboxamide], the inhibition at 0.1 µM stood at 1%.

Turning to `COc1cccc(-c2ccc(C(=O)N3Cc4ccc(C(=O)NCCCN(C)C)n4Cc4ccccc43)cc2C)c1` [Example 74, N-[3-(Dimethylamino)propyl]-10-[(3′-methoxy-2-methyl[1,1′-biphenyl]-4-yl)carbonyl]-10,11-dihydro-5H-pyrrolo[2,1-c][1,4]benzodiazepine-3-carboxamide], the inhibition at 0.1 µM came out at 12%.

Consider `Cc1ccccc1-c1ccc(C(=O)N2Cc3ccc(C(=O)N4CCN(CCCN(C)C)CC4)n3Cc3ccccc32)cc1C` [Example 247, {4-[3-(Dimethylamino)propyl]-1-piperazinyl}{10-[(2,2′-dimethyl[1,1′-biphenyl]-4-yl)carbonyl]-10,11-dihydro-5H-pyrrolo[2,1-c][1,4]benzodiazepin-3-yl}methanone], for which the inhibition at 0.1 µM came to 62%.

As to `Cc1ccccc1-c1ccc(C(=O)N2Cc3ccc(C(=O)NCCCN(C)C)n3Cc3ccccc32)cc1` [Example 76, N-[3-(Dimethylamino)propyl]-10-[(2′-methyl[1,1′-biphenyl]-4-yl)carbonyl]-10,11-dihydro-5H-pyrrolo[2,1-c][1,4]benzodiazepine-3-carboxamide], the inhibition at 0.1 µM amounted to 58%.

Regarding `COc1cc(C(=O)N2Cc3ccc(C(=O)N4CCN(CCCN(C)C)CC4)n3Cc3ccccc32)ccc1-n1c(C)ccc1C` [Example 320, {4-[3-(Dimethylamino)propyl]-1-piperazinyl}{10-[4-(2,5-dimethyl-1H-pyrrol-1-yl)-3-methoxybenzoyl]-10,11-dihydro-5H-pyrrolo[2,1-c][1,4]benzodiazepin-3-yl}methanone], the inhibition at 0.1 µM came to 4%.

Turning to `COc1cccc(-c2ccc(C(=O)N3Cc4ccc(C(=O)n5ccnc5)n4Cc4ccccc43)cc2C)c1` [Example 289, 1H-Imidazol-1-yl-{10-[(3′-methoxy-2-methyl[1,1′-biphenyl]-4-yl)carbonyl]-10,11-dihydro-5H-pyrrolo[2,1-c][1,4]benzodiazepin-3-yl}methanone], the inhibition at 0.1 µM turned out to be 6%.

Regarding `COc1cc(C(=O)N2Cc3ccc(C(=O)NCCCN(C)C)n3Cc3ccccc32)ccc1-c1ccccc1C` [Example 77, N-[3-(Dimethylamino)propyl]-10-[(2-methoxy-2′-methyl[1,1′-biphenyl]-4-yl)carbonyl]-10,11-dihydro-5H-pyrrolo[2,1-c][1,4]benzodiazepine-3-carboxamide], the inhibition at 0.1 µM was 44%.

`COc1cc(C(=O)N2Cc3ccc(C(=O)n4ccnc4)n3Cc3ccccc32)ccc1-c1cccc2ccccc12` [Example 291, 1H-Imidazol-1-yl-{10-[3-methoxy-4-(1-naphthyl)benzoyl]-10,11-dihydro-5H-pyrrolo[2,1-c][1,4]benzodiazepin-3-yl}methanone]: the inhibition at 0.1 µM came to 2%.

Take `COc1ccccc1-c1ccc(C(=O)N2Cc3ccc(C(=O)N[C@H]4CN5CCC4CC5)n3Cc3ccccc32)cc1C` [Example 298, N-[(3R)-1-Azabicyclo[2.2.2]oct-3-yl]-10-[(2′-methoxy-2-methyl[1,1′-biphenyl]-4-yl)carbonyl]-10,11-dihydro-5H-pyrrolo[2,1-c][1,4]benzodiazepine-3-carboxamide]: the inhibition at 0.1 µM was found to be 20%.

Take `COc1ccccc1-c1ccc(C(=O)N2Cc3ccc(C(=O)n4ccnc4)n3Cc3ccccc32)cc1OC` [Example 293, {10-[(2,2′-Dimethoxy[1,1′-biphenyl]-4-yl)carbonyl]-10,11-dihydro-5H-pyrrolo[2,1-c][1,4]benzodiazepin-3-yl}(1H-imidazol-1-yl)methanone]: the inhibition at 0.1 µM is 2%.

`Cc1cc(C(=O)N2Cc3ccc(C(=O)n4ccnc4)n3Cc3ccccc32)ccc1-c1ccccc1C(F)(F)F` [Example 294, 1H-Imidazol-1-yl(10-{[2-methyl-2′-(trifluoromethyl)[1,1′-biphenyl]-4-yl]carbonyl}-10,11-dihydro-5H-pyrrolo[2,1-c][1,4]benzodiazepin-3-yl)methanone]: the inhibition at 0.1 µM is -3%.

For `COc1cc(C(=O)N2Cc3ccc(C(=O)N4CCN(C)CC4)n3Cc3ccccc32)ccc1-c1ccccc1C` [Example 53, {10-[(2-Methoxy-2′-methyl[1,1′-biphenyl]-4-yl)carbonyl]-10,11-dihydro-5H-pyrrolo[2,1-c][1,4]benzodiazepin-3-yl}(4-methyl-1-piperazinyl)methanone], the inhibition at 0.1 µM came to 38%.

In the case of `COc1ccccc1-c1ccc(C(=O)N2Cc3ccc(C(=O)N4CCCN(C)CC4)n3Cc3ccccc32)cc1C` [Example 62, {10-[(2′-Methoxy-2-methyl[1,1′-biphenyl]-4-yl)carbonyl]-10,11-dihydro-5H-pyrrolo[2,1-c][1,4]benzodiazepin-3-yl}(4-methyl-1,4-diazepan-1-yl)methanone], the inhibition at 0.1 µM is 10%.
